Experiments:
Sarcoma 180 [1] = test: Large Sarcoma 180 regressions, injection on day 8 (Table II); type: in vivo, female Swiss white mice; settings: single i.p. injection on day 8, H2O solution
Experimental: In addition to the day 1 injections described above, in a number of case injections were delayed until day 8 of tumor growth. In these cases the tumor was usually at least larger than 1/2 gm, as estimated by palpation. The animals were then injected and observed for a period of approximately 60 days. Activity was measured by the number of animals whose tumors had regressed to the vanishing point, while still allowing the animal to survive for this time period. Such test results are described in TABLE II below.

[2] = Hydrolysis by U.V./vis spectral and conductivity studies; type: physicochemical; settings: recrystallization from boiling water with malonic acid
Source text: *U.V./via spectral and conductivity studies have shown that hydrolysis is negligible.

L1210 = test: Confirmatory antitumor test at the National Cancer Institute, L1210 (Table IV); type: in vivo, Mice; settings: daily injections days 1-9, i.p.
Source text: Samples of the malonato diammine and malonato ethylene diamine complexes of platinum(II) were submitted to the Drug Research and Development Branch of the National Cancer Institute for screening for antitumor activity against the L1210 tumor in mice. They confirm the activity of the compounds of the invention.

Sarcoma 180 [3] = test: Antitumor activity, solid sarcoma 180 tumor, T/C of tumor weights at day 10 (Table I); type: in vivo, female Swiss white mice; settings: single i.p. injection day 1, slurry in H2O
Experimental: The compounds of the invention were tested for antitumor activity, i.e., for sensitivity to a planar dsp^2 platinum(II) coordination compound or an octahedral d^2 sp^3 platinum(IV) coordination compound using our standard screening tumor, solid sarcoma 180 tumor in female Swiss white mice, following standard protocols for this testing as set by the National Cancer Institute. (Cancer Chemotherapy Rep., 25 (1962)).
For these tests an S 180 tumor taken from a sacrificed mouse was disected free of superfluous tissue and cut under sterile conditions into approximately 10 milligram size pieces. These tissue pieces were then implanted by trocar in the left axillary region, subcutaneously, in new mice. The mice were, on the average, approximately four weeks old and weighed 18-20 grams. Taking day 0 as the day of implant, the animals were sacrificed on day 10. The tumors were excised and weighed and the ratio of the weights of the tumors in mice in the treated animals to the control set of animals was obtained. This ratio, multiplied by 100, is given as the T/C ratio in Table I.
For the first set of tests the coordination compound was freshly dissolved in sterile distilled water and injected intraperitoneally on day 1 into each of the test mice. The volume of the injection was usually 1/2 ml. In some cases, in order to get an active dose into the animal where the chemical was not soluble in this amount of solvent, a fine dispersion was prepared of the dose needed for the test. Thus, some of our test results were obtained on animals where a slurry of the compound was injected. These are so noted in Table I below. In addition, for some of the compounds, there was injected about 1 ml of solution, either in one single injection, or in 2 injections given a few hours apart of 1/2 ml each. These injections were initially given in 4 different dose levels for each new compound with 6 mice in each dose level. The tests covered a dose range from a low ineffective dose, to an upper dose level which produced some deaths within the time period of the experiment.

O=C(O)CC(=O)O.[NH2-].[NH2-].[Pt+2] [Malonatodiammineplatinum (II), Malonatodiammineplatinum(II)]
Deaths (Sarcoma 180 [1]; 14 mg/kg): 4 | Total Number of Regressions (Sarcoma 180 [1]; 14 mg/kg): 2 | Deaths (Sarcoma 180 [1]; 16 mg/kg): 3 | Total Number of Regressions (Sarcoma 180 [1]; 16 mg/kg): 3 | Deaths (Sarcoma 180 [1]; 18 mg/kg): 2 | Total Number of Regressions (Sarcoma 180 [1]; 18 mg/kg): 4 | Deaths (Sarcoma 180 [1]; 20 mg/kg): 1 | Total Number of Regressions (Sarcoma 180 [1]; 20 mg/kg): 5 | hydrolysis [2]: negligible | % Increase in Lifespan (L1210; 12.5 mg/kg): 115% | % Increase in Lifespan (L1210; 25 mg/kg): 133% | % Increase in Lifespan (L1210; 50 mg/kg): 163% | No. of Deaths (Sarcoma 180 [3]; 10 mg/kg): 0 | T/C (Sarcoma 180 [3]; 10 mg/kg): 76 | No. of Deaths (Sarcoma 180 [3]; 15 mg/kg): 0 | T/C (Sarcoma 180 [3]; 15 mg/kg): 38 | No. of Deaths (Sarcoma 180 [3]; 20 mg/kg): 0 | T/C (Sarcoma 180 [3]; 20 mg/kg): 64 | No. of Deaths (Sarcoma 180 [3]; 25 mg/kg): 0 | T/C (Sarcoma 180 [3]; 25 mg/kg): 31 | No. of Deaths (Sarcoma 180 [3]; 30 mg/kg): 1/6 | T/C (Sarcoma 180 [3]; 30 mg/kg): 7 | No. of Deaths (Sarcoma 180 [3]; 40 mg/kg): 6/6 | No. of Deaths (Sarcoma 180 [3]; 50 mg/kg): 5/6 | T/C (Sarcoma 180 [3]; 50 mg/kg): 1 | No. of Deaths (Sarcoma 180 [3]; 60 mg/kg): 6/6

Reference: patent US4657927A, “Malonato platinum compounds” (Research Corporation, priority 1983, dated 1987)
